Laboratory results: US20090227680A1, “Amino Acid Derivatives” (Pfizer, Inc., priority 2005, published 2009)
Structures can show the parent of a compound that is named as a salt.

Biological target: T1, α2δ subunit derived from porcine brain tissue (Sus scrofa, UniProt A0A287BIN3)
T1 construct: the α2δ subunit derived from porcine brain tissue; from tissue; host or cells: porcine brain tissue
Assay: radioligand binding assay using [3H]gabapentin and the α2δ subunit
Conditions: [3H]gabapentin binding
From the text: The biological activity of the alpha-2-delta ligands of the invention may be measured in a radioligand binding assay using [^3H]gabapentin and the α2δ subunit derived from porcine brain tissue (Gee N. S., Brown J. P., Dissanayake V. U. K., Offord J., Thurlow R., Woodruff G. N., J. Biol. Chem., 1996; 271:5768-5776). Results may be expressed in terms of μM or nM α2δ binding affinity.

T1 sequence (A0A287BIN3 25-1109): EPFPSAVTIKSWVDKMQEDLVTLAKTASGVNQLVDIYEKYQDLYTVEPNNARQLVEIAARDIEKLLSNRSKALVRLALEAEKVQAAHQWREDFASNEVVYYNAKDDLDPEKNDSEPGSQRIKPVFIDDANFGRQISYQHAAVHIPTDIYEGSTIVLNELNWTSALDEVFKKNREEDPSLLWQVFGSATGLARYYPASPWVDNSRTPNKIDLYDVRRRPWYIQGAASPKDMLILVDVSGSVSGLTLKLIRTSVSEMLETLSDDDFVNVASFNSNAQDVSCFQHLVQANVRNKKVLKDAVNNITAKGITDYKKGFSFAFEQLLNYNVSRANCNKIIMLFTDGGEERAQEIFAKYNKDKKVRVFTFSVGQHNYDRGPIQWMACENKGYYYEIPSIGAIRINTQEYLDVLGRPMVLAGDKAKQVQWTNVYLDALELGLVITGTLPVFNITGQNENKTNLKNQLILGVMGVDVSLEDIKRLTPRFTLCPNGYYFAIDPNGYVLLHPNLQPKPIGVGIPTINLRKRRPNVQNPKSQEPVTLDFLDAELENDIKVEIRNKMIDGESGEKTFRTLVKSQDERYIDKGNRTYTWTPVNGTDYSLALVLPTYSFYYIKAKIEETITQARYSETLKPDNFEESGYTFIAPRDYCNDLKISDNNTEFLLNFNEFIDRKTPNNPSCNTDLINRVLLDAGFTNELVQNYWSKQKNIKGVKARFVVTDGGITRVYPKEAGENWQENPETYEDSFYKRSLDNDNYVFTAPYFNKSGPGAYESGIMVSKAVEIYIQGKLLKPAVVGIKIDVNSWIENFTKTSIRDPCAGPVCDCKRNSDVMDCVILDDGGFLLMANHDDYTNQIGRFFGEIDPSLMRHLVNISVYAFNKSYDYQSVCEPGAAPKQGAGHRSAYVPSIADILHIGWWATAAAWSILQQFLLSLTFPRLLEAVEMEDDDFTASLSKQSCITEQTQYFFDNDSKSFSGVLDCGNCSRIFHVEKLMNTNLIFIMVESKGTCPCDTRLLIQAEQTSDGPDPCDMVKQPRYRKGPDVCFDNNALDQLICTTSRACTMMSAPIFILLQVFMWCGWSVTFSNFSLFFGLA

| Structure (SMILES) | IC50 |
| --- | --- |
| NC[C@H](Oc1cc(Cl)ccc1Cl)C(=O)O [Example 1, (2S)-3-Amino-2-(2,5-dichlorophenoxy)propanoic acid hydrochloride] | 0.009 µM |
| NC[C@H](Oc1cccc(Cl)c1)C(=O)O [Example 2] | 0.091 µM |

Continued, values first:

| IC50 | Structure (SMILES) |
| --- | --- |
| 0.114 µM | CCCc1cccc(O[C@@H](CN)C(=O)O)c1 [Example 5, (2S)-3-Amino-2-(3-propylphenoxy)propanoic acid hydrochloride] |
| 0.124 µM | NC[C@H](Oc1ccccc1Cl)C(=O)O [Example 3] |
| 0.012 µM | COc1ccc(Cl)cc1O[C@@H](CN)C(=O)O [Example 4] |
